Assay results: ChEMBL document CHEMBL4819072, “Radioligand and computational insight in structure - Activity relationship of saccharin derivatives being ipsapirone and revospirone analogues” (Bioorg Med Chem Lett, 2021)

How the values were obtained:
[1] = biological target: T1, 5-hydroxytryptamine receptor 1A (Homo sapiens, UniProt P08908); assay: Displacement of [3H]-[…] from human 5-HT1AR expressed in human HEK293 cells; format: cell-based
T1 sequence (P08908 whole entry): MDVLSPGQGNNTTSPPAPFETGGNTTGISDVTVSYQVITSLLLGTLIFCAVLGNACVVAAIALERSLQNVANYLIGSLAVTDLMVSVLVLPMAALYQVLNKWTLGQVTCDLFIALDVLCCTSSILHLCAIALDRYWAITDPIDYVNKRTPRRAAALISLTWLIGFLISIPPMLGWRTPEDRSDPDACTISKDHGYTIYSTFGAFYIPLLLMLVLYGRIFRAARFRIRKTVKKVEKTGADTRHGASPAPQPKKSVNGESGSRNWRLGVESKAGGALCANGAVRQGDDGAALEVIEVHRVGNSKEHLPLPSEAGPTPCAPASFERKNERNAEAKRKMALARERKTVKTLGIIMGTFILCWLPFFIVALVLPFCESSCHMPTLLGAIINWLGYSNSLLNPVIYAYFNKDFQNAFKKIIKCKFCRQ

D(4) dopamine receptor = biological target: T2, D(4) dopamine receptor (Homo sapiens, UniProt P21917); assay: Binding affinity to human D4R
T2 sequence (P21917 whole entry): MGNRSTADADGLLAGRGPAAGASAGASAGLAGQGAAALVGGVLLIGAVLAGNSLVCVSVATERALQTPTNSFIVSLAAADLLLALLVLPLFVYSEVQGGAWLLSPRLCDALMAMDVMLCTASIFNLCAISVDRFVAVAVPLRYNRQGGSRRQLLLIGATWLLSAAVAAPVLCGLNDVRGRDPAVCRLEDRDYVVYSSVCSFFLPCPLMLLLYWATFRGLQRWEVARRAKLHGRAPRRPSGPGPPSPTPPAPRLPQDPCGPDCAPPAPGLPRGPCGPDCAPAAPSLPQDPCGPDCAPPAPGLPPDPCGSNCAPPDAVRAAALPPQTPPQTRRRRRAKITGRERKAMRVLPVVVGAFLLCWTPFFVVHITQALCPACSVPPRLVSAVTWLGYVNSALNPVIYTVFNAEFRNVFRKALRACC

[2] = biological target: 5-hydroxytryptamine receptor 6 (Homo sapiens, UniProt P50406); assay: Displacement of [3H]-LSD from human 5-HT6R expressed in human HEK293 cells; format: cell-based
[3] = biological target: 5-hydroxytryptamine receptor 7 (Homo sapiens, UniProt P34969); assay: Displacement of [3H]-5CT from human 5-HT7R expressed in human HEK293 cells; format: cell-based
[4] = biological target: 5-hydroxytryptamine receptor 2A (Homo sapiens, UniProt P28223); assay: Displacement of [3H]-ketanserin from human 5-HT2AR expressed in CHO cells; format: cell-based
D(2) dopamine receptor = D(2) dopamine receptor (Homo sapiens, UniProt P14416); assay: Displacement of [3H]-raclopride from human D2R expressed in human HEK293 cells; format: cell-based
[5] = biological target: T3, 5-hydroxytryptamine receptor 2C (Homo sapiens, UniProt P28335); assay: Binding affinity to human 5-HT2C
T3 sequence (P28335 whole entry): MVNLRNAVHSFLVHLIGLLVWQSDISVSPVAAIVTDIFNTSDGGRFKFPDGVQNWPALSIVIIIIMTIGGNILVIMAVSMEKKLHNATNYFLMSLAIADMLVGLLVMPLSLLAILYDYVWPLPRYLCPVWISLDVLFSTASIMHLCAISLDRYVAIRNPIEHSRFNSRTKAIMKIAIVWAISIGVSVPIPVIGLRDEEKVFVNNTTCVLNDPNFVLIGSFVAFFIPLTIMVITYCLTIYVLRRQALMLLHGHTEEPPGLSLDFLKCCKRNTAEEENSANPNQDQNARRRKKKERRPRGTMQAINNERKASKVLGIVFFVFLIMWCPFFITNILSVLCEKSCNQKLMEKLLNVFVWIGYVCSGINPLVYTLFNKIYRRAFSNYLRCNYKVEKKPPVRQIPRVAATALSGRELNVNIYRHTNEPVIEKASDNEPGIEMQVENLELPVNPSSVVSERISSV

[6] = biological target: T4, Adrenergic receptor alpha-1 (Homo sapiens, UniProt P35348+P25100+P35368); assay: Binding affinity to human adrenergic receptor alpha1; format: protein assay
T4 sequence (P35348 whole entry): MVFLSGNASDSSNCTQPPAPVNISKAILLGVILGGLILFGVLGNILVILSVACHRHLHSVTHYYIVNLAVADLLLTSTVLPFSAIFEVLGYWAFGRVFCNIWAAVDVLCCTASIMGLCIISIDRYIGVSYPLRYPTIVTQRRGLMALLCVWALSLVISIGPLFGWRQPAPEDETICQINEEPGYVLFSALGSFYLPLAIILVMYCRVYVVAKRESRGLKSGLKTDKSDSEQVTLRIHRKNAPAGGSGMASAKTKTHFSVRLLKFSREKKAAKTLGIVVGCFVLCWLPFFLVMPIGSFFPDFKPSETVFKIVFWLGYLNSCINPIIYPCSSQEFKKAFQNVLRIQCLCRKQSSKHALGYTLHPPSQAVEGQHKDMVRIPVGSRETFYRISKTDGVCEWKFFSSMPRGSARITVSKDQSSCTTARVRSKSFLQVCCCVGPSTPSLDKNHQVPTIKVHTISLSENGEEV
T4 sequence (P25100 whole entry): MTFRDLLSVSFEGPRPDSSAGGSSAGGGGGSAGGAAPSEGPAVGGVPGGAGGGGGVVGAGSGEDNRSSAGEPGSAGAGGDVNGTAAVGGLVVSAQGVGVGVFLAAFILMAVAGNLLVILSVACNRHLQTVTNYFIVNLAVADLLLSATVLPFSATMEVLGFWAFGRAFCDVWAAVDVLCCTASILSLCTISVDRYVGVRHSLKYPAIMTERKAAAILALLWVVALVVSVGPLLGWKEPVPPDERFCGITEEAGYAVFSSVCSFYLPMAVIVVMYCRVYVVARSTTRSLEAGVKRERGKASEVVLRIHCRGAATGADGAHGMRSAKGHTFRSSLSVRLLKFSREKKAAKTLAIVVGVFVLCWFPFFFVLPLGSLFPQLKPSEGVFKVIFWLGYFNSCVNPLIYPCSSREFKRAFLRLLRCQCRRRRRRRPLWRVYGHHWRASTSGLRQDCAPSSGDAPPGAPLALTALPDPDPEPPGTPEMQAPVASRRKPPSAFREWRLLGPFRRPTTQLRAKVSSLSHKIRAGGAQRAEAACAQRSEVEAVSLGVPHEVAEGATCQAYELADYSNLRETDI
T4 sequence (P35368 whole entry): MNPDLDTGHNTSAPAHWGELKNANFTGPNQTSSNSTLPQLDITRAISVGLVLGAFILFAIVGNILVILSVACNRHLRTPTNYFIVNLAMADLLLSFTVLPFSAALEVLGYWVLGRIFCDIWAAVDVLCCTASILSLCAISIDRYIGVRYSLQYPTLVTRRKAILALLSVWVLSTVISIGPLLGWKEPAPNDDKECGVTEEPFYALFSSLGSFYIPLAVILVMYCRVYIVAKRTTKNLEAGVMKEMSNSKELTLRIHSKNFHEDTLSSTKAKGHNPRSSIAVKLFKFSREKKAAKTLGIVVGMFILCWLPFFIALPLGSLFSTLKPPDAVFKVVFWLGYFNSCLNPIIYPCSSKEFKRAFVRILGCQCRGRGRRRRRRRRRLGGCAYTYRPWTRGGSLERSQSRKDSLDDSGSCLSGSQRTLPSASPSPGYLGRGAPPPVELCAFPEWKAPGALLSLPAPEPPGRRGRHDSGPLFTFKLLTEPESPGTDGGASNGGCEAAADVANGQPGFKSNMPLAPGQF

Sequence of D(2) dopamine receptor (P14416 whole entry): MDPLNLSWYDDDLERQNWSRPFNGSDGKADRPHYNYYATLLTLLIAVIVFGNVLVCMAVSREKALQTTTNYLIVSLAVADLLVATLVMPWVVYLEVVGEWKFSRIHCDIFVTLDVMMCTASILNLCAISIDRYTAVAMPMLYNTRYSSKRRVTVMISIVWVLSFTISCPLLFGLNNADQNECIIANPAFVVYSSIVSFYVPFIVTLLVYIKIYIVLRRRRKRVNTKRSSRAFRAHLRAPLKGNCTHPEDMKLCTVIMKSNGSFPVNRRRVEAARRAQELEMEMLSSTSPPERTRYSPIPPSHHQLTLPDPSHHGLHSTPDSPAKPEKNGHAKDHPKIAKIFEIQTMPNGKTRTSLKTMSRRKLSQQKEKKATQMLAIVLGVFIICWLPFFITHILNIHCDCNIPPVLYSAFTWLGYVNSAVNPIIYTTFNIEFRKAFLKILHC
Sequence of 5-hydroxytryptamine receptor 6 (P50406 whole entry): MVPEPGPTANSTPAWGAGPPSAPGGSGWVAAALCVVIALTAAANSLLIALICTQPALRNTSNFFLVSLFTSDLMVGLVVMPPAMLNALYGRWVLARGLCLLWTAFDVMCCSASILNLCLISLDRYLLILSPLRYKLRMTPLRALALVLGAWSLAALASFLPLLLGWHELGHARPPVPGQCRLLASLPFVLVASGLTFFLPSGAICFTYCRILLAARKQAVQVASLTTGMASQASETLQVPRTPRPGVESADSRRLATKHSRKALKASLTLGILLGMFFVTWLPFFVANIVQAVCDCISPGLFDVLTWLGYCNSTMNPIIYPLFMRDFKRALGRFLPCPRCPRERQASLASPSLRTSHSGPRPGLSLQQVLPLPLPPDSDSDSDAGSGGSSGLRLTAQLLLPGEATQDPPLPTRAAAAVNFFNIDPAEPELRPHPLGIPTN
Sequence of 5-hydroxytryptamine receptor 7 (P34969 whole entry): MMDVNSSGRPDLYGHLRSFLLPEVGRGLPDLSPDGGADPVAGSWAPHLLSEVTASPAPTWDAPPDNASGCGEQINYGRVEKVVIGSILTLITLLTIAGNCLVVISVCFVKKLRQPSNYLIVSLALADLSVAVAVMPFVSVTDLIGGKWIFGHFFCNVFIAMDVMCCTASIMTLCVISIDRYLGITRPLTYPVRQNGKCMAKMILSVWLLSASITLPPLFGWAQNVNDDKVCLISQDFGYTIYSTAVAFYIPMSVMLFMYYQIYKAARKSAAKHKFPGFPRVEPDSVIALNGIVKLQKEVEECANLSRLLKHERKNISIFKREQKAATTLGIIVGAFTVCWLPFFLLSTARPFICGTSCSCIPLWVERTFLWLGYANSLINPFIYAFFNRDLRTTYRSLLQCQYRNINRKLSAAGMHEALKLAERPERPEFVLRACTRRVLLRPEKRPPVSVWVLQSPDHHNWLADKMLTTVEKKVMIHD
Sequence of 5-hydroxytryptamine receptor 2A (P28223 whole entry): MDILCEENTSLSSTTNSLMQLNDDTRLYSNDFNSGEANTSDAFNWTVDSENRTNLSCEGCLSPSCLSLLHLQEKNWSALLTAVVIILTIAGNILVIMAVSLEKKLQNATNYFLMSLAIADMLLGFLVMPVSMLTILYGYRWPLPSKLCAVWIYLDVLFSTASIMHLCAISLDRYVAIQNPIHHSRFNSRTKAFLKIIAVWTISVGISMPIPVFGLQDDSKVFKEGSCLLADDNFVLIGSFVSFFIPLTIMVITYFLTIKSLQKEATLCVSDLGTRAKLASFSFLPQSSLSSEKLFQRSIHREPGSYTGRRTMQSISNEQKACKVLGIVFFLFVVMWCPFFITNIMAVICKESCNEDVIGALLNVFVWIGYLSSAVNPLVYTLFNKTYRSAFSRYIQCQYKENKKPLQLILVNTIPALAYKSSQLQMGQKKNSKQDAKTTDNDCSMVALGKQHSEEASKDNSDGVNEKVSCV

Row | Ki [1] | Ki [2] | Ki [3] | Ki [4] | SMILES | further results
1 | > 1000 nM | – | – | – | O=C1c2ccccc2C(=O)N1CCN1CCN(c2ccccc2)CC1 | –
2 | 200 nM | – | – | – | O=C1c2ccccc2C(=O)N1CCCN1CCN(c2ccccc2)CC1 | –
3 | 10 nM | – | – | – | O=C1c2ccccc2C(=O)N1CCCCN1CCN(c2ccccc2)CC1 | –
4 | – | 72 nM | 487 nM | 299 nM | O=C1c2ccccc2S(=O)(=O)N1CCCCCCN1CCN(c2ccc(Cl)cc2)CC1 | –
5 | – | 5710 nM | 2510 nM | – | O=C1c2ccccc2S(=O)(=O)N1CCCCCCN1CCN(c2ncccn2)CC1 | –
6 | 10 nM | 779 nM | 105 nM | 764 nM | COc1ccccc1N1CCN(CCCCCCN2C(=O)c3ccccc3S2(=O)=O)CC1 | Ki (D(2) dopamine receptor): 1 nM
7 | – | 72 nM | 487 nM | 299 nM | O=C1c2ccccc2S(=O)(=O)N1CCCCCCN1CCN(c2cccc(Cl)c2Cl)CC1 | –
8 | 400 nM | – | – | 700 nM | O=C1c2ccccc2S(=O)(=O)N1CCCN1CCN(c2cccc(C(F)(F)F)c2)CC1 | Ki [5]: > 5000 nM
9 | 13 nM | 2630 nM | 179 nM | 1440 nM | O=C1c2ccccc2S(=O)(=O)N1CCCCCN1CCN(c2ccccn2)CC1 | Ki (D(2) dopamine receptor): 92 nM
10 | 1 nM | 2660 nM | 372 nM | 2580 nM | O=C1c2ccccc2S(=O)(=O)N1CCCCN1CCN(c2cccc(Cl)c2Cl)CC1 | Ki (D(2) dopamine receptor): 26 nM
11 | 3 nM | 1990 nM | 125 nM | 584 nM | COc1ccccc1N1CCN(CCCCCN2C(=O)c3ccccc3S2(=O)=O)CC1 | Ki (D(2) dopamine receptor): 20 nM
12 | 16 nM | 101 nM | 36 nM | 105 nM | O=C1c2ccccc2S(=O)(=O)N1CCCCCN1CCN(c2cccc3ccccc23)CC1 | Ki (D(2) dopamine receptor): 20 nM
13 | 101 nM | 703 nM | 191 nM | 139 nM | O=C1c2ccccc2S(=O)(=O)N1CCCCCN1CCN(c2ccc(Cl)cc2)CC1 | Ki (D(2) dopamine receptor): 254 nM
14 | 29 nM | 197 nM | 149 nM | 126 nM | O=C1c2ccccc2S(=O)(=O)N1CCCCCN1CCN(c2cccc(Cl)c2Cl)CC1 | Ki (D(2) dopamine receptor): 17 nM
15 | 16 nM | 1840 nM | 148 nM | 313 nM | O=C1c2ccccc2S(=O)(=O)N1CCCCCN1CCN(c2ccccc2)CC1 | Ki (D(2) dopamine receptor): 165 nM
16 | 6 nM | 7100 nM | 2670 nM | 6310 nM | O=C1c2ccccc2S(=O)(=O)N1CCCCCN1CCN(c2ncccn2)CC1 | Ki (D(2) dopamine receptor): 954 nM
17 | 21 nM | 1350 nM | 35 nM | 162 nM | O=C1c2ccccc2S(=O)(=O)N1CCCCCN1CCN(c2cccc(C(F)(F)F)c2)CC1 | Ki (D(2) dopamine receptor): 34 nM
18 | 7.9 nM | 16800 nM | 1410 nM | 15000 nM | O=C1c2ccccc2S(=O)(=O)N1CCCCN1CCN(c2ncccn2)CC1 [IPSAPIRONE] | Ki [6]: 229 nM
19 | 2 nM | – | – | – | O=C1c2ccccc2S(=O)(=O)N1CCCN1CCN(c2ncccn2)CC1 [REVOSPIRONE] | –

Continued, compound first:

Row | SMILES | Ki [1] | Ki [2] | Ki [3] | Ki [4] | further results
20 | COc1cccc(N2CCN(CCOc3ccccc3C(N)=O)CC2)c1 | 155 nM | – | – | – | –
21 | NC(=O)c1ccccc1OCCCN1CCN(c2ccccc2)CC1 | 143 nM | – | – | – | –
22 | O=C1c2ccccc2S(=O)(=O)N1CCCCN1CCN(c2ccc(Cl)cc2)CC1 | – | – | – | – | Ki (D(4) dopamine receptor): 36 nM
23 | COc1ccccc1N1CCN(CCCCN2C(=O)c3ccccc3S2(=O)=O)CC1 | – | – | – | – | Ki (D(4) dopamine receptor): 79 nM
24 | O=C1c2ccccc2C(=O)N1CCCCCN1CCN(c2ccccc2)CC1 | 8.5 nM | – | – | – | –
25 | O=C1c2ccccc2S(=O)(=O)N1CCCCN1CCN(c2ccccc2)CC1 | – | – | – | – | Ki (D(4) dopamine receptor): 136 nM
26 | COc1cccc(N2CCN(CCCCCn3c(=O)oc4ccccc4c3=O)CC2)c1 | 20 nM | – | – | – | –
27 | COc1cccc(N2CCN(CCCOc3ccccc3C(N)=O)CC2)c1 | 21 nM | – | – | – | –
28 | O=C1c2ccccc2C(=O)N1CCCCCCN1CCN(c2ccccc2)CC1 | 1 nM | – | – | – | –
29 | O=C1c2ccccc2S(=O)(=O)N1CCN1CCN(c2cccc(C(F)(F)F)c2)CC1 | > 5000 nM | – | – | – | –
30 | COc1cccc(N2CCN(CCCN3C(=O)c4ccccc4C3=O)CC2)c1 | 13 nM | – | – | – | –
31 | COc1cccc(N2CCN(CCN3C(=O)c4ccccc4C3=O)CC2)c1 | > 1000 nM | – | – | – | –
32 | COc1cccc(N2CCN(CCCCCOc3ccccc3C(N)=O)CC2)c1 | 4 nM | – | – | – | –
33 | COc1ccccc1N1CCN(CCCCCN2C(=O)c3ccccc3C2=O)CC1 | 7.2 nM | – | – | – | –
34 | COc1ccccc1N1CCN(CCCCCCOc2ccccc2C(N)=O)CC1 | 3 nM | – | – | – | –
35 | COc1cccc(N2CCN(CCCCOc3ccccc3C(N)=O)CC2)c1 | 38 nM | – | – | – | –
36 | COc1cccc(N2CCN(CCCCCCn3c(=O)oc4ccccc4c3=O)CC2)c1 | 18 nM | – | – | – | –
37 | COc1ccccc1N1CCN(CCCCCCN2C(=O)c3ccccc3C2=O)CC1 | 22 nM | – | – | – | –
38 | COc1cccc(N2CCN(CCCCn3c(=O)oc4ccccc4c3=O)CC2)c1 | 3.2 nM | – | – | – | –
39 | O=c1oc2ccccc2c(=O)n1CCCCN1CCN(c2ccccc2)CC1 | 2.8 nM | – | – | – | –
40 | COc1ccccc1N1CCN(Cc2ccc(CN3C(=O)c4ccccc4S3(=O)=O)cc2)CC1 | 77 nM | 10100 nM | 97 nM | 4750 nM | Ki (D(2) dopamine receptor): 2 nM
41 | COc1cccc(N2CCN(CCCn3c(=O)oc4ccccc4c3=O)CC2)c1 | 46 nM | – | – | – | –
42 | O=c1oc2ccccc2c(=O)n1CCCN1CCN(c2ccccc2)CC1 | 402 nM | – | – | – | –
